Experimental data published in patent US20210283092A1, “METHODS AND USES OF […] DERIVATIVES” (priority 2018, published 2021).
“Also recorded” adds a separate entry of the source.

What was measured:
[1] = system: human neutrophils stimulated with MSU; assay: MSU-induced calcium mobilization in human neutrophils (Fura-2); format: cell-based; details: for effect on MSU-induced calcium levels: 10 μM 28a, 39, 47a, 89, 1 μM 14, 3 μM 43, TPO at indicated concentrations; for lowest concentration significantly inhibiting the MSU-induced increase in intracellular calcium: 1 mg/ml MSU, 30 min pre-incubation; for type of dose response, cytoplasmic calcium: 0.01 to 10 μM
Protocol: Neutrophils were isolated from venous blood of healthy adult volunteers. Briefly, venous blood was obtained in tubes containing isocitrate, red blood cells were sedimented in 2% dextran and neutrophils were aseptically purified by centrifugation on Ficoll-Paque cushions. Contaminating erythrocytes were removed by hypotonic lysis and neutrophils were resuspended in Mg^2+-free HBSS containing 1.6 mM of CaCl2.
(FIG. 7D), D1=(28a) (FIGS. 7E and 7J), D2=(39) (FIG. 7F), D3=(47a) (FIGS. 7G and 7J), D4=(89) (FIG. 7H) prior to the addition of MSU (1 mg/ml).
The intracellular calcium concentration was determined with a spectrofluorometer and is expressed as the area under the curve (from the MSU injection up to 100 sec).
Changes in cytoplasmic calcium were then measured after the addition of MSU or HBSS (the negative control) using two excitation wavelengths at 340 and 380 nm and an emission wavelength of 510 nm. The free internal calcium concentration was estimated from the ratio of the fluorescence values obtained at 340 and 380 nm. The results are calculated as the area under the curve of the intracellular calcium concentration as a function of time (0-100 sec relative to stimulus addition).
Since one of the earliest molecular events in neutrophils that is initiated by MSU is the mobilization of intracellular calcium stores, the effect of (91) (CCl), (43) and (47a) was assessed on this early signalling event. Briefly, and as described in further detail above, human neutrophils were incubated with the fluorescent calcium indicator Fura-2 prior to incubation with a range of concentrations of (91) (CCl), (43) or (47a) and stimulated with MSU. Fura-2 monitors the increase in cytoplasmic calcium caused by its release from intracellular stores.

[2] = system: human neutrophils stimulated with MSU; assay: Superoxide production by human neutrophils (cytochrome C reduction); format: cell-based; details: for lowest concentration inhibiting MSU-induced superoxide production: 1 mg/ml MSU
Protocol: The results are expressed as a ratio of the superoxide produced by the MSU control.
Superoxide production was measured using the reduction of cytochrome C assay. The difference between the optical density readings at 550 nm and 540 nm read within the first 10 minutes was multiplied by the extinction coefficient of cytochrome C to obtain the number of nmol O2 produced by 1×10^6 cells. The results are expressed as nmol O2/1×10^6 cells/ml.
An additional neutrophil effector function that is calcium-dependent, known to be activated by MSU and that can cause damage to the inflamed joint, is the production of ROS.

[3] = system: MSU-induced leukocyte recruitment to the dorsal air-pouch; assay: Air-pouch model, compound given 1.5 hours after MSU; format: in vivo, mice; details: for lowest dose significantly dampening MSU-induced leukocyte recruitment: subcutaneous 1.5 hours after MSU
Protocol: (§1) An air-pouch was generated on the dorsum of mice over a period of seven days by injecting air subcutaneously. […] Seven hours after the administration of MSU, the exudate in the air pouches was harvested by two flushes with 2 ml and one with 1 ml of PBS+0.5 M EDTA and the number of recruited leukocytes determined by flow cytometry. Leukocytes were stained with an anti-CD45 and anti-Ly6 G antibody.

[4] = Plasma concentration and half-life in mice after subcutaneous injection
Protocol: The concentration of the compound in the plasma (FIGS. 10A and B) was determined by mass spectrometry. The concentration of (91) (CCl) or CH-35 (43) is expressed as the means of the amount of (91) (CCl) or CH-35 (43) measured in the plasma (ng/ml) of 5 mice harvested at the same time point.

[5] = system: human neutrophils stimulated with MSU; assay: CXCL8/IL-8 release by human neutrophils (ELISA); format: cell-based; details: for lowest concentration giving significant decrease in MSU-induced release of IL-8: 1 mg/ml MSU, 3 h
Protocol: (§2) Extracellular CXCL8/IL-8 or IL-1β were quantified by ELISA (Invitrogen). All samples were measured in duplicate.
In addition, since IL-1 induces the expression of adhesion molecules on endothelial cells as well as the synthesis of pro-inflammatory cytokines, which together promote a massive recruitment of neutrophils, the ability of CCl (91) and CH-35 (43) to dampen the production of IL-1 was also assessed.

[6] = Concentration in circulating leukocytes of mice after subcutaneous injection
Protocol: Blood was harvested by cardiac puncture and centrifuged to obtain circulating leukocytes. The concentration of the compound in the leukocytes (FIGS. 11A and B) was determined by mass spectrometry. The concentration of (91) (CCl) or CH-35 (43) is expressed as the means of the amount of (91) (CCl) or CH-35 (43) measured in circulating leukocytes (ng/ml) of 5 mice harvested at the same time point.

[7] = system: human neutrophils stimulated with MSU; assay: IL-1 release by TNF-α primed human neutrophils (ELISA); format: cell-based; details: 1 mg/ml MSU, 3 h
Protocol: as §2
The production and secretion of mature IL-1 requires two stimuli. Human neutrophils were, therefore, primed with TNF-α prior to stimulation with MSU. […] (FIG. 8H-J).

[8] = system: MSU-induced leukocyte recruitment to the dorsal air-pouch; details: literature value (Chia et al. 2008); cited from earlier work
[9] = system: MSU-induced leukocyte recruitment to the dorsal air-pouch; assay: Air-pouch model, compound given 5 min prior to MSU; format: in vivo, CD-1 mice
Protocol: as §1

[10] = system: atherosclerosis in LDLR KO mice; assay: Mouse model of atherosclerosis, high-fat diet; format: in vivo
Protocol: LDLR KO mice were randomly divided into 4 groups and either fed a control (CD) diet (group 1 & 2) or high-fat (group 3 & 4) diet. The high-fat (HF) diet contained 0.2% total cholesterol, 21% total fat by weight (42% kcal from fat), >60% of total fatty acids) and was high in sucrose (34% by weight). The animals and their feed were weighed every week.
Mice in group 2 & 4 were administered a dose of 0.5 μmol/kg CCl subcutaneously (s.c), 3 times a week for 8 weeks.
Blood was drawn from mice after the 8-week diet. Serum was prepared from the drawn blood and frozen until analysis. Serum triglycerides and cholesterol were measured in serum of mice by our Multidisciplinary and Microbiology Laboratory Service.
The aortic lesion ‘en face’ assay and Sudan IV staining was performed on aortas harvested from all mice. The percent lipid stained area in the aortic branch and the descending aorta was compared between mice using the ‘region of interest’ tool in ImageJ.
Blood was drawn from mice after the 8-week diet. Serum was prepared from the drawn blood and frozen until analysis. The levels of cytokines in the serum were measured by Luminex assay. The cytokines assayed were Eotaxin (CCL11), CCL21, G-CSF (CSF-3), RANKL, VEGF-A, IL-1 beta, IL-6 & MCP-1 (CCL2). These cytokines were chosen based on a cytokine signature that was reported to reflect the development of atherosclerosis in ApoE KO mice. The LDLR KO model was used since the inflammatory aspect of atherosclerosis is better represented in this model.

[11] = Acute toxicity study in rats; format: in vivo
[12] = system: human neutrophils stimulated with fMLP; assay: fMLP-induced increase in cytoplasmic calcium in human neutrophils; format: cell-based; details: 10 μM compound, 10^−7 M fMLP
Protocol: The intracellular calcium concentration was determined with a spectrofluorometer and is expressed as the area under the curve.
To assess the specificity of CCl (91) towards neutrophil activation by MSU, it was determined whether CCl (91) was able to inhibit neutrophil responses towards an unrelated stimulus. A bacterial stimulus was chosen because neutrophil activation in response to this stimulus affects the survival of the host. Briefly, human neutrophils were incubated with the 10 μM CCl (91) prior to the activation with the bacterial peptide fMLF. […] In the presence of CCl (91), however, the cytoplasmic calcium response was unaffected.

[13] = 0.5 μmol/kg s.c. 3 times a week, 8 weeks, HF diet
[14] = en face assay, Sudan IV, HF+CCl

Compound: COc1cc2c(c(OCc3ccccc3Cl)c1OC)-c1ccc(OC)c(=O)cc1[C@@H](NC(C)=O)CC2 [(14), N-[(7S)-2,3,10-trimethoxy-9-oxo-1-((phenyl(2-chloro))methoxy)-5,6,7,9-tetrahydrobenzo[α]heptalen-7-yl] acetamide]
- effect on MSU-induced calcium levels [1]: neutrophil-inhibitory effects

Compound: COC(=O)N(C)[C@H]1CCc2cc(OC)c(OC)c(OC)c2-c2ccc(SC)c(=O)cc21 [TPO, reference compound]
- effect on MSU-induced calcium levels [1]: inhibition at higher concentrations

Compound: COC(=O)N[C@H]1CCc2cc(O)c(OC)c(OC)c2-c2ccc(SC)c(=O)cc21 [(89)]
- effect on MSU-induced calcium levels [1]: exception

Compound: CCCOc1cc2c(c(OC)c1OC)-c1ccc(SC)c(=O)cc1[C@@H](NC(C)=O)CC2 [(43), N-[(7S)-3-propoxy-1,2-dimethoxy-10-methylsulfanyl-9-oxo-5,6,7,9-tetrahydrobenzo [α]heptalen-7-yl]acetamide]
- effect on MSU-induced calcium levels [1]: neutrophil-inhibitory effects
- lowest concentration significantly inhibiting the MSU-induced increase in intracellular calcium [1]: 0.1 µM
- type of dose response, cytoplasmic calcium [1]: classical monotonic dose response
- lowest concentration inhibiting MSU-induced superoxide production [2]: 0.1 µM
- lowest dose significantly dampening MSU-induced leukocyte recruitment [3]: 2.5 µmol/kg
- time after injection at which plasma level dropped to undetectable ([4]; 5 μmol/kg subcutaneous, mice): about 50 minutes
- time of peak plasma concentration ([4]; 5 μmol/kg subcutaneous, mice): 15 min
- lowest concentration giving significant decrease in MSU-induced release of IL-8 [5]: 0.1 µM
- time of peak concentration in circulating leukocytes ([6]; 5 μmol/kg subcutaneous, mice): 15 min
- concentration at which MSU-induced IL-1 production is diminished (threshold) [7]: 1 µM

Compound: COc1cc2c(c(OC)c1OC)-c1ccc(SC)c(=O)cc1[C@@H](NC(C)=O)CC2 [(39), N-[(7S)-1,2,3-trimethoxy-10-methylsulfanylo-9-oxo-5,6,7,9-tetrahydrobenzo [α]heptalen-7-yl]acetamide]
- effect on MSU-induced calcium levels [1]: neutrophil-inhibitory effects

Compound: N-[(7S)-1,2,3,10-tetramethoxy-9-oxo-5,6,7,9-tetrahydrobenzo[α]heptalen-7-yl] acetamide [Colchicine, reference compound]
- lowest concentration significantly inhibiting the MSU-induced increase in intracellular calcium [1]: 10 µM
- lowest concentration inhibiting MSU-induced superoxide production [2]: 1 µM
- dose that effectively dampens MSU-induced leukocyte recruitment in mice [8]: 5 µmol/kg
- effect on MSU-induced leukocyte recruitment at 0.5 μmol/kg ([3]; 0.5 μmol/kg, after MSU): no longer able to significantly inhibit; also recorded: loses its anti-inflammatory activity
- effect on MSU-induced leukocyte recruitment at 0.5 μmol/kg ([9]; 0.5 μmol/kg, 5 min prior to MSU): lost its potency to significantly inhibit
- dose inhibiting MSU-induced leukocyte recruitment ([9]; subcutaneous 5 min prior to MSU, 7 hours): 5 µmol/kg
- lowest concentration giving significant decrease in MSU-induced release of IL-8 [5]: 1 µM
- concentration at which MSU-induced IL-1 production is diminished (threshold) [7]: 10 µM

Compound: CCOc1cc2c(c(OC)c1OC)-c1ccc(SC)c(=O)cc1[C@@H](NC(=O)OC)CC2 [(91)]
- behaviour and tolerability ([10]; 0.5 μmol/kg s.c. 3 times a week, 8 weeks): did not show any signs of suffering
- serum cholesterol versus HF diet alone [10, 13]: lower
- serum triglycerides versus HF diet alone [10, 13]: lower
- effect on serum cytokine levels ([10]; Luminex, HF diet 8 weeks): no significant effect
- percent of total area of the aortic arch covered by lesions versus HF diet [10, 14]: smaller percent
- percent of total area of the descending aorta covered by lesions versus HF diet [10, 14]: smaller percent
- percent of total area of the descending aorta covered by lesions ([10]; majority of mice in the HF+CCl group): less than 1%
- effect on MSU-induced increase in cytoplasmic calcium at 10 μM ([1]; 10 μM): does not have a significant effect
- lowest concentration significantly inhibiting the MSU-induced increase in intracellular calcium [1]: 0.1 µM
- type of dose response, cytoplasmic calcium [1]: non-monotonic dose response
- fold lower concentration than colchicine for inhibiting calcium mobilization ([1]; versus colchicine): about 100 fold
- lowest concentration inhibiting MSU-induced superoxide production [2]: 0.1 µM
- fold lower concentration than colchicine for inhibiting superoxide production ([2]; versus colchicine): about 10 fold
- fold lower dose than effective dose of colchicine inhibiting leukocyte recruitment ([3]; mouse, in vivo): about 10 fold
- lowest dose significantly dampening MSU-induced leukocyte recruitment [3]: 0.5 µmol/kg
- persistence in the plasma ([4]; 5 μmol/kg subcutaneous, mice): at least 2 hours
- fraction of peak plasma concentration by 60 minutes ([4]; mouse, in vivo, sc): less than ¼
- peak plasma concentration ([4]; mouse, in vivo, sc): 80 ng/mL
- time of peak plasma concentration ([4]; mouse, in vivo, sc): 15 min
- half-life ([4]; mouse, in vivo, sc, 5 umol/kg): 13.3 min
- fold lower dose than colchicine inhibiting leukocyte recruitment ([9]; mouse, in vivo): ~10 fold
- dose inhibiting MSU-induced leukocyte recruitment ([9]; mouse, in vivo, sc): 0.5 µmol/kg
- lowest concentration giving significant decrease in MSU-induced release of IL-8 [5]: 0.1 µM
- fold lower concentration than colchicine for inhibiting release of IL-8 ([5]; versus colchicine): about 10 fold
- toxicity compared with colchicine ([11]; acute toxicity study in rats): less toxic than colchicine
- maximal tolerable dose relative to colchicine ([11]; rats): 3 fold
- time of peak concentration in circulating leukocytes ([6]; mouse, in vivo, sc): 15 min
- cytoplasmic calcium response to fMLF in presence of compound [12]: unaffected
- concentration at which MSU-induced IL-1 production is diminished (threshold) [7]: 0.1 µM
